The values below come from patent US20250250300A1, “COMPOSITIONS AND METHODS FOR TREATING PSEUDOMYXOMA PERITONEI” (UNIVERSITY OF SOUTH CAROLINA, priority 2024, published 2025).

Assay [1] has as its system PMP501-1 cells. Kind of assay: cell viability assay (crystal violet), PMP501-1. It is filed as cell-based, human. To be noted: for stimulation of proliferation: 33.3 μM (for 3). The method, then: (§1) To evaluate whether myxomapeptin is the major contributor to the PMP inhibition, 2 were assayed against two PMP cell lines (PMP501-1 and ABX023-1), human colorectal adenocarcinoma cells (HT-29), and human fetal intestinal epithelial cells (FHC) using crystal violet cell viability assay.
(§2) Next, the modulatory effect of 3 and 4 on PMP, HT-29 and FHC cells was evaluated. […] Subsequently, the effect of 3 and 4 on the mitochondrial respiration of ABX023-1 cells was measure in the seahorse mitochondrial stress assay.

The test system of assay [2] is ABX023-1 cells. Kind of assay: crystal violet cell viability assay, ABX023-1. It is filed as cell-based, human. To be noted: for stimulation of proliferation: 33.3 μM (for 3). As for the experimental part: as §1, §2
Assay [3] relates to human colorectal adenocarcinoma cells (HT-29). The assay is described as follows: cell viability assay (crystal violet), HT-29. It is filed as cell-based. To be noted: for effect on proliferation: 33.3 μM (for 3). As for the experimental part:
as §1, §2

The test system of assay [4] is human fetal intestinal epithelial cells (FHC). Kind of assay: crystal violet cell viability assay, FHC. The format is cell-based. As to conditions: for effect on proliferation: 33.3 μM (for 3). The method, then:
as §1, §2

The test system of assay [5] is FHC cells. The assay is described as follows: seahorse mitochondrial stress assay, FHC. It is filed as cell-based, human. To be noted: for mitochondrial respiration (normalized OCR and ECAR): normalized per 1,000 cells. As for the experimental part: FIG. 3C depicts seahorse mitochondrial stress assay of 2 and 5-FU (positive control) toward FHC cell lines, from which the normalized oxygen consumption rate (OCR) and normalized extracellular acidification rate (ECAR) were measured. The OCR was measured at baseline and in response to sequential injections of oligomycin (O), carbonyl cyanide-p-trifluoromethoxyphenyl-hydrazon (FCCP), and rotenone with antimycin (RA).
(§3) As tumor cells requires larger energy supply that relies on mitochondrial respiration and glycolysis, we sought to explore the effect of myxomapeptins on PMP cell energy metabolism using seahorse mitochondrial stress assay. The normalized oxygen consumption rate (OCR; proportional to mitochondrial respiration) and normalized extracellular acidification rate (ECAR; proportional to glycolysis) were measured for PMP501-1 cells and FHC in the presence of 2, 5-fluorouracil (5-FU) or vehicle.
as §2

Assay [6] concerns ABX023-1 cells. The assay is described as follows: seahorse mitochondrial stress assay, ABX023-1. It is filed as cell-based, human. As to conditions: 15 μM (for 3), after FCCP supplementation. As for the experimental part:
FIG. 4C depicts seahorse mitochondrial stress assay of 3 and 4 toward ABX023-1 cell lines, from which the normalized oxygen consumption rate (OCR) and normalized extracellular acidification rate (ECAR) were measured. The OCR was measured at baseline and in response to sequential injections of oligomycin (O), carbonyl cyanide-p-trifluoromethoxyphenyl-hydrazon (FCCP), and rotenone with antimycin (RA).
as §2

Assay [7] relates to HT-29 cells. Kind of assay: seahorse mitochondrial stress assay, HT-29. It is filed as cell-based, human.
The test system of assay [8] is PMP501-1 cells. Kind of assay: seahorse mitochondrial stress assay, PMP501-1. To be noted: PMP501-1, normalized per 1,000 cells. The format is cell-based, human. As for the experimental part: FIG. 3B depicts seahorse mitochondrial stress assay of 2 and 5-FU (positive control) toward PMP501-1cell lines, from which the normalized oxygen consumption rate (OCR) and normalized extracellular acidification rate (ECAR) were measured. The OCR was measured at baseline and in response to sequential injections of oligomycin (O), carbonyl cyanide-p-trifluoromethoxyphenyl-hydrazon (FCCP), and rotenone with antimycin (RA).
as §3

For assay [9] the following is noted: reported; cited from earlier work.
For assay [10], the system named is PMP501-1 cells. Kind of assay: cell uptake, LCMS of cell lysate, PMP501-1. As to conditions: for ratio of compound in cell lysis versus control extracts: PMP501-1, compound fed, 5 days of incubation. The format is cell-based, human. From the text:
(§4) Due to the inability of entering target cells passively, most cyclic lipopeptides are reported to perform biological functions by disrupting cell wall biosynthesis or the integrity of cell membranes. Given that myxomapeptins influence mitochondrial respiration and glycolysis, which occur in the cytoplasm, without wishing to be bound by theory, it was hypothesized that myxomapeptins are likely able to enter PMP cells. To this end, 2 was fed into the cultures of PMP501-1, ABX023-1, HT-29 and FHC cells with normalized cell density. After 5 days of incubation and a thorough wash, the cells were lysed and extracted by butanol for LCMS analysis. By calculating the ratio of 2 in cell lysis versus control extracts, 18.9% and 26.7% of 2 were found in the lysates of PMP501-1 and ABX023-1, whereas only 6.1% and 4.1% were detected from the lysates of HT-29 and FHC, respectively (FIG. 3A).
(§5) Next, to study the percentage of myxomapeptins contributed by the intracellular PMP498-3 in light of the presence of PMP498-3 bacteria inside the PMP cells, the bacteria was co-cultured with the cell lines tested above.

The test system of assay [11] is ABX023-1 cells. Kind of assay: cell uptake, LCMS of cell lysate, ABX023-1. It is filed as cell-based, human. As to conditions: for ratio of compound in cell lysis versus control extracts: ABX023-1, compound fed, 5 days of incubation.
Text: as §4, §5

Assay [12] deals with HT-29 cells. Kind of assay: cell uptake, LCMS of cell lysate, HT-29. It is filed as cell-based, human. As to conditions: HT-29, compound fed, 5 days of incubation.
Text: as §4

For assay [13], the system named is FHC cells. Kind of assay: cell uptake, LCMS of cell lysate, FHC. It is filed as cell-based, human. As to conditions: compound fed, 5 days of incubation.
Text: as §4

Assay [14] is described as follows: antimicrobial activity test. It is filed as cell-based. To be noted: 64 μg/mL. As for the experimental part:
Next, the absolute configuration of amino acid residues in 1 and 2 were determined by advanced Marfey's analysis after acid hydrolysis. After derivatization with (L)-and (D)-1-fluoro-2-4-dinitrophenyl-5-L-alanine amide (FDAA), the acid hydrolysate of 1 and 2 together with amino acid standards were analyzed by LCMS. […] Besides, the analysis allowed assignment of non-canonical amino acids as (2S,3R)-MeDap, (2R,4S)—Y—OH-Gln and (2S,3R)-B-Me-Glu in the structures of 1 and 2. Thus, the structures inclusive of absolute configuration of 1 and 2 are unambiguously assigned (FIG. 2C), and were named myxomapeptins A and B based on the source of the producing strain. Myxomapeptins are a new class of depsi cyclic lipopeptide consisting of eight amino acid residues that features N-methylation, C-methylation and hydroxylation, and a-proton epimerization.

The term IC50 denotes the midpoint of a concentration-inhibition curve. Read a low IC50 as greater potency.

*1 amine or outer side, *2 acyl side, *3 side chain or, on linkers, in order; H or OH if unused. Where a SMILES comes first, the peptide text is derived from it. Bridges are numbered along the chain shown (N, C = ends). [ ]: non-standard residue; d: D form. The star is where a group is joined. X2 = NC(=O)C[C@@H](O)[C@@H](N[*:1])C(=O)[*:2]; d(aThr) = C[C@@H](O)[C@@H](N)C(=O)O; NMeF = CN[C@@H](Cc1ccccc1)C(=O)O; X1 = CC[C@@H](C)CCCCCCCCCCC(=O)*; dNMeN = CN[C@H](CC(N)=O)C(=O)O Some results are limits rather than exact numbers.

`O=C(O)/C=C/c1ccc(O)cc1` [Compound 3, p-coumaric acid]: the stimulation of proliferation in the assay on PMP501-1 cells [1] and in the assay on ABX023-1 cells [2] was approximately 20% each time. The effect on proliferation result in assay [3] and in assay [4] was “no effect” throughout. For the same molecule, the “stimulatory effect on oxygen consumption” value in the assay on FHC cells [5] and with HT-29 cells [7] was “no substantial stimulatory effect” in each case. Moreover, the “increase of maximum respiratory capacity” value in the assay with ABX023-1 cells [6] is on record as 25%.

Regarding `N[C@@H](Cc1ccc(O)cc1)C(=O)O` [Compound 4, L-tyrosine], the stimulation of proliferation entry with PMP501-1 cells [1] and with ABX023-1 cells [2] was “no discernible effect” throughout. Also, the effect on proliferation result in [3] and in assay [4] was “no discernible effect” throughout. The “increase of maximum respiratory capacity” value in the assay on ABX023-1 cells [6] is “do not have any effect”.

For the molecule `O=c1[nH]cc(F)c(=O)[nH]1` [Compound 5-FU, 5-fluorouracil], the “mitochondrial respiration (normalized OCR and ECAR)” value with PMP501-1 cells [8] and in the assay with FHC cells [5] was “unselectively inhibited” throughout.

Regarding `CC[C@@H](C)CCCCCCCCCCC(=O)N[C@H]1C(=O)N[C@@H](CC(=O)O)C(=O)N[C@H](CO)C(=O)N[C@@H](CO)C(=O)N(C)[C@H](CC(N)=O)C(=O)N(C)[C@@H](Cc2ccccc2)C(=O)N[C@H]([C@H](O)CC(N)=O)C(=O)N[C@H](CCC(=O)O)C(=O)O[C@@H]1C` [Lipopeptin A, lipopeptin A] (X1-[d(aThr)]D[dS]S[dNMeN][NMeF][X2][dE]; ester 1-C), in [9], the “antibacterial and antifungal activities” value was “reported to possess antibacterial and antifungal activities”.

Turning to `CCCCCCCCCC(=O)N[C@@H](Cc1c[nH]c2ccccc12)C(=O)N[C@H](CC(N)=O)C(=O)N[C@@H](CC(=O)O)C(=O)N[C@@H]1C(=O)NCC(=O)N[C@@H](CCCN)C(=O)N[C@@H](CC(=O)O)C(=O)N[C@H](C)C(=O)N[C@@H](CC(=O)O)C(=O)NCC(=O)N[C@H](CO)C(=O)N[C@@H]([C@H](C)CC(=O)O)C(=O)N[C@@H](CC(=O)c2ccccc2N)C(=O)O[C@@H]1C` [daptomycin], the “ratio of compound in cell lysis versus control extracts” value in the assay with PMP501-1 cells [10], in the assay with ABX023-1 cells [11], in the assay on HT-29 cells [12] and in the assay on FHC cells [13] was “cannot be detected” each time.

For the molecule myxomapeptin A [Compound 1], in assay [14], the antimicrobial activity entry is “no antimicrobial activity”.

Turning to myxomapeptin B [Compound 2], the IC50 in the assay on PMP501-1 cells [1] is 23 µM; with ABX023-1 cells [2], 33.7 µM; in assay [3] it was more than 100 µM; in assay [4] it was more than 100 µM. Moreover, the “mitochondrial respiration (normalized OCR and ECAR)” value was “strongly inhibits” with PMP501-1 cells [8] and “not observed” in the assay with FHC cells [5]. Further, the “ratio of compound in cell lysis versus control extracts” value in the assay on PMP501-1 cells [10] is listed as 18.9%; with ABX023-1 cells [11] it was 26.7%; in the assay with HT-29 cells [12] it was 6.1%; in the assay on FHC cells [13], 4.1%. The results for the “percentage of 2 found in cell lysate” value in the assay on PMP501-1 cells [10] (PMP501-1 co-cultured with PMP498-3 bacteria) and with ABX023-1 cells [11] (ABX023-1 co-cultured with PMP498-3 bacteria) were 22.5% and 30.2%, respectively. Besides, the antimicrobial activity entry in [14] is “no antimicrobial activity”.

On to neopeptin, for which the “antibacterial and antifungal activities” value in assay [9] was “reported to possess antibacterial and antifungal activities”.
